What was measured:
[1] = system: NCI-H524; experiment: cells; assay type: functional, cell-based, Homo sapiens; conditions: Homo sapiens, NCI-H524;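 further: growth inhibition of human NCI-H524 cells, read out through a cell viability assay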
Description: SANGER: Inhibition of human NCI-H524 cell growth in a cell viability assay.

[2] = system: CMK; experiment: cells; assay type: functional, cell-based, Homo sapiens; conditions: Homo sapiens, CMK;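 further: growth inhibition of CMK cells, read out as cell viability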
Description: SANGER: Inhibition of human CMK cell growth in a cell viability assay.

[3] = system: IMR-5; experiment: cells; assay type: functional, cell-based, Homo sapiens; conditions: Homo sapiens, IMR-5; read-out: IC50;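 further: growth inhibition of human IMR-5 cells, read out with a cell viability assay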
Description: SANGER: Inhibition of human IMR-5 cell growth in a cell viability assay.

[4] = system: NB14; experiment: cells; assay type: functional, cell-based, Homo sapiens; conditions: Homo sapiens, NB14;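 further: growth inhibition of NB14 cells measured with a cell viability assay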
Description: SANGER: Inhibition of human NB14 cell growth in a cell viability assay.

[5] = system: BC1 cell line; experiment: SANGER: Inhibition of human BC-1 cell growth in a cell viability assay.; assay type: functional, cell-based; conditions: Homo sapiens, BC1
[6] = system: NCI-H719; experiment: cells; assay type: functional, cell-based, Homo sapiens; conditions: Homo sapiens, NCI-H719;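 further: growth inhibition of the cultured cell line, read out with a viability assay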
Description: SANGER: Inhibition of human NCI-H719 cell growth in a cell viability assay.

[7] = system: HuTu80; experiment: cells; assay type: functional, cell-based, Homo sapiens, HUTU-80; conditions: Homo sapiens, HuTu80;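 further: growth inhibition of HuTu80 human cells, determined with a cell viability readout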
Description: SANGER: Inhibition of human HUTU-80 cell growth in a cell viability assay.

[8] = system: MRK-nu-1; experiment: cells; assay type: functional, cell-based, Homo sapiens; conditions: Homo sapiens, MRK-nu-1;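 further: cell viability assay measuring growth suppression of human MRK-nu-1 cells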
Description: SANGER: Inhibition of human MRK-nu-1 cell growth in a cell viability assay.

[9] = system: NCI-H64; experiment: cells; assay type: functional, cell-based, Homo sapiens; conditions: Homo sapiens, NCI-H64;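 further: growth inhibition of NCI-H64 cells, read out with a cell viability assay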
Description: SANGER: Inhibition of human NCI-H64 cell growth in a cell viability assay.

[10] = system: Daudi; experiment: cells; assay type: functional, cell-based, Homo sapiens; conditions: Homo sapiens, Daudi;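 further: growth inhibition of Daudi cells, read out by a viability assay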
Description: SANGER: Inhibition of human Daudi cell growth in a cell viability assay.

[11] = system: EC-GI-10; experiment: cells; assay type: functional, cell-based, Homo sapiens; conditions: Homo sapiens, EC-GI-10
Description: SANGER: Inhibition of human EC-GI-10 cell growth in a cell viability assay.

[12] = system: BL-70; experiment: SANGER: Inhibition of human BL-70 cell growth in a cell viability assay.; assay type: functional, cell-based; conditions: Homo sapiens, BL-70
[13] = system: SNU-C1; experiment: cells; assay type: functional, cell-based, Homo sapiens; conditions: Homo sapiens, SNU-C1;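 further: growth inhibition of SNU-C1 human cells, read out by a cell viability assay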
Description: SANGER: Inhibition of human SNU-C1 cell growth in a cell viability assay.

[14] = system: EB-3; experiment: cells; assay type: functional, cell-based, Homo sapiens; conditions: Homo sapiens, EB-3;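 further: human EB-3 cells, growth inhibition read out via a cell viability assay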
Description: SANGER: Inhibition of human EB-3 cell growth in a cell viability assay.

[15] = system: BOKU; experiment: cells; assay type: functional, cell-based; conditions: Homo sapiens;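 further: growth inhibition of the human BOKU cell line, read out by a cell viability assay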
Description: SANGER: Inhibition of human BOKU cell growth in a cell viability assay.

[16] = system: KARPAS-422; experiment: cells; assay type: functional, cell-based, Homo sapiens; conditions: Homo sapiens, KARPAS-422
Description: SANGER: Inhibition of human KARPAS-422 cell growth in a cell viability assay.

[17] = system: NCI-H322M; experiment: cells; assay type: functional, cell-based, Homo sapiens; conditions: Homo sapiens, NCI-H322M;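 further: cell viability assay measuring inhibition of growth of human NCI-H322M cells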
Description: SANGER: Inhibition of human NCI-H322M cell growth in a cell viability assay.

[18] = system: NCI-H2081; experiment: cells; assay type: functional, cell-based, Homo sapiens; conditions: Homo sapiens, NCI-H2081;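 further: growth inhibition of human NCI-H2081 cells, read out with a cell viability assay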
Description: SANGER: Inhibition of human NCI-H2081 cell growth in a cell viability assay.

SMILES: C=CC(=O)N1CCCC(Nc2nc(Nc3ccc(N(C)C(=O)CC)cc3)nc3[nH]cnc23)C1 (configuration not stated)
- IC50 [1]: > 10200 nM
- IC50 [2]: > 10200 nM
- IC50 [3]: > 10200 nM
- IC50 [4]: > 10200 nM
- IC50 [5]: > 10200 nM
- IC50 [6]: > 10200 nM
- IC50 [7]: > 10200 nM
- IC50 [8]: > 10200 nM
- IC50 [9]: > 10200 nM
- IC50 [10]: > 10200 nM
- IC50 [11]: > 10200 nM
- IC50 [12]: > 10200 nM
- IC50 [13]: > 10200 nM
- IC50 [14]: > 10200 nM
- IC50 [15]: > 10200 nM
- IC50 [16]: > 10200 nM
- IC50 [17]: > 10200 nM
- IC50 [18]: > 10200 nM

SMILES: COc1ccc(N(C(=O)Oc2c(C)cccc2C)c2ccnc(Nc3ccc(N4CCN(C)CC4)cc3)n2)c(OC)c1
- IC50 [1]: > 5120 nM
- IC50 [2]: > 5120 nM
- IC50 [3]: > 5120 nM
- IC50 [4]: > 5120 nM
- IC50 [5]: > 5120 nM
- IC50 [6]: > 5120 nM
- IC50 [7]: 175 nM
- IC50 [8]: 4720 nM
- IC50 [9]: > 5120 nM
- IC50 [10]: 714 nM
- IC50 [11]: > 5120 nM
- IC50 [12]: < 20 nM
- IC50 [13]: > 5120 nM
- IC50 [14]: 2160 nM
- IC50 [15]: 1810 nM
- IC50 [16]: > 5120 nM
- IC50 [17]: > 5120 nM
- IC50 [18]: > 5120 nM

SMILES: Cc1cc(N2CCOCC2)cc2[nH]c(-c3c(NC[C@@H](O)c4cccc(Cl)c4)cc[nH]c3=O)nc12
- IC50 [1]: > 5120 nM
- IC50 [2]: 745 nM
- IC50 [3]: > 5120 nM
- IC50 [4]: > 5120 nM
- IC50 [5]: > 5120 nM
- IC50 [6]: > 5120 nM
- IC50 [7]: 466 nM
- IC50 [8]: > 5120 nM
- IC50 [9]: > 5120 nM
- IC50 [10]: > 5120 nM
- IC50 [11]: > 5120 nM
- IC50 [12]: 4800 nM
- IC50 [13]: 2540 nM
- IC50 [14]: > 5120 nM
- IC50 [15]: 3150 nM
- IC50 [16]: > 5120 nM
- IC50 [17]: > 5120 nM
- IC50 [18]: > 5120 nM

SMILES: NC(=O)c1cccc(-c2cc(Nc3ccc(OC(F)(F)F)cc3)ncn2)c1
- IC50 [1]: > 1280 nM
- IC50 [2]: > 1280 nM
- IC50 [3]: > 1280 nM
- IC50 [4]: > 1280 nM
- IC50 [5]: > 1280 nM
- IC50 [6]: > 1280 nM
- IC50 [7]: > 1280 nM
- IC50 [8]: > 1280 nM
- IC50 [9]: > 1280 nM
- IC50 [10]: > 1280 nM
- IC50 [11]: > 1280 nM
- IC50 [12]: > 1280 nM
- IC50 [13]: > 1280 nM
- IC50 [14]: > 1280 nM
- IC50 [15]: > 1280 nM
- IC50 [16]: > 1280 nM
- IC50 [17]: > 1280 nM
- IC50 [18]: > 1280 nM

SMILES: CC(C)C[C@H](NC(=O)[C@H](Cc1ccccc1)NC(=O)c1cnccn1)B(O)O [BORTEZOMIB]
- IC50 [1]: > 20 nM
- IC50 [2]: 1.29 nM
- IC50 [3]: > 20 nM
- IC50 [4]: 18 nM
- IC50 [5]: 2.31 nM
- IC50 [6]: > 20 nM
- IC50 [7]: 0.533 nM
- IC50 [8]: > 20 nM
- IC50 [9]: 2.44 nM
- IC50 [10]: 1.22 nM
- IC50 [11]: > 20 nM
- IC50 [12]: 2.12 nM
- IC50 [13]: > 20 nM
- IC50 [14]: 2.66 nM
- IC50 [16]: > 20 nM
- IC50 [17]: > 20 nM
- IC50 [18]: 10.1 nM

SMILES: C[C@@H](Oc1cc(-c2cnn(C3CCNCC3)c2)cnc1N)c1c(Cl)ccc(F)c1Cl [CRIZOTINIB]
- IC50 [1]: > 2000 nM
- IC50 [2]: 1960 nM
- IC50 [3]: > 2000 nM
- IC50 [4]: > 2000 nM
- IC50 [5]: > 2000 nM
- IC50 [6]: > 2000 nM
- IC50 [7]: > 2000 nM
- IC50 [8]: > 2000 nM
- IC50 [9]: > 2000 nM
- IC50 [10]: > 2000 nM
- IC50 [11]: > 2000 nM
- IC50 [12]: > 2000 nM
- IC50 [13]: > 2000 nM
- IC50 [14]: > 2000 nM
- IC50 [15]: > 2000 nM
- IC50 [16]: > 2000 nM
- IC50 [17]: > 2000 nM
- IC50 [18]: > 2000 nM

— ChEMBL document CHEMBL1201861, “Genomics of Drug Sensitity in Cancer screening data, Wellcome Trust Sanger Institute”
